These results are taken from paper PMC10778976, “BAY-3827 and SBI-0206965: Potent AMPK Inhibitors That Paradoxically Increase Thr172 Phosphorylation” (International Journal of Molecular Sciences, 2023).

In brackets after ≈: the same amount, converted by molar mass.

The subject of data set [1] is human AMPK (α2β1γ1 complex). The conditions noted are these: low ATP concentration (10 µM); read-out: IC50, inhibition of human AMPK (α2β1γ1 complex); cited from earlier work.
The nature of a further data set: Aqueous solubility. The class given is physicochemical. The conditions noted are these: aqueous medium (not further specified).
Details of data set [2]: method as in ref 32 = [32]; 32. Lemos C. Schulze A. Overview for BAY-3827, an Inhibitor of PRKAA1, RPS6KA1 Available online: https://www.sgc-ffm.uni-frankfurt.de/chemProbes#!specificprobeoverview/BAY-3827 (accessed on 14 Novembe). The conditions noted are these: rat hepatocytes; cited from earlier work.
Data set [3] can be described thus: Pharmacokinetic study in mice, blood levels by LC:MS. The class given is in vivo, NOD-SCID mice. The conditions noted are these: 10 mg/kg oral gavage after 1-aminobenzotriazole 50 mg/kg. As for the experimental part:
All experiments with live animals were approved in advance by the Ethical Review Committee of the University of Dundee in accordance with the UK Animal (Scientific Procedures) Act 1986. Two female mice of the NOD-SCID strain were obtained from Charles River Laboratories, UK. The animals were maintained under a 12 h light/12 h dark cycle. The animals were allowed ad libitum access to food (RM1; Special Diet Services, UK) and water. Temperature and relative humidity were maintained between 20 and 24 °C and 45 and 65%, respectively. All animals received a minimum of 14 days acclimatization prior to the start of the study. 1-Aminobenzotriazole was dissolved on the day of dosing in Milli-Q ultrapure water at a concentration of 10 mg/mL and dosed via oral gavage at a dose level of 50 mg/kg. BAY-3827 was suspended in 0.5% hydroxypropylmethylcellulose (Methocel K15M Premium USP/EP; Colorcon) in water, at a concentration of 2 mg/mL. The BAY-3827 formulation was dosed via oral gavage at a dose level of 10 mg/kg, 30 min after the administration of 1-aminobenzotriazole. The animals were observed regularly after dose administration. […]
A Waters Acquity Performance Liquid Chromatography coupled to a Waters Xevo TQ-S tandem mass spectrometer was used for the quantification of BAY-3827, using donepezil hydrochloride as an internal standard. […]
Calibration samples, QC samples, blanks, double blanks, and study samples were extracted through protein precipitation. […] The resultant supernatant from the calibration samples, QCs, double blanks, and blanks (200 µL) and study samples (80 µL) was then transferred to HPLC glass vials containing Milli-Q water (100 µL or 40 µL, respectively) to reduce the solvent strength ready for UHPLC/MS analysis.
The sample concentrations were determined via a linear regression (weighting: 1/x) on the calibration samples using Waters TargetLynx application (v4.2). […] The lower limit of quantification (LLoQ) was determined as the analyte response with ≥three times the analyte response of the blanks (plasma with internal standard but not analyte). […]

For data set [4], the system named is RSK (RSK1-4, also known as RPS6KA1-4). The conditions noted are these: selectivity screen against 331 kinases, 1 µM, 10 µM ATP; cited from earlier work.
Data set [5] concerns phosphorylation of Ser29 on ATG14, an established target for ULK1, in U2OS cells. As to the kind of experiment: ATG14 phosphorylation (ULK1 target) in U2OS cells (Western blot). The data set is classed as cell-based, human. The conditions noted are these: read-out: IC50, inhibition of ATG14 (Ser29) phosphorylation. As for the experimental part: T-Rex U2OS cells carrying a Flp Recombinase Target (FRT) site were generated as described previously and grown in Dulbecco’s Modified Eagle’s Medium (DMEM) supplemented with 10% (v/v) FBS and 1% (v/v) penicillin/streptomycin.
Cells were lysed rapidly in situ on culture plates using ice-cold lysis medium containing phosphatase inhibitors, as described previously.
SDS-PAGE was performed using precast NuPAGE Tris-acetate 3–8% gradient polyacrylamide gels in Tris-acetate running buffer when analyzing ACC, GBF1, or Raptor, or NuPAGE Bis-Tris 4–12% gradient polyacrylamide gels in the MOPS buffer system (ThermoFisher Scientific, Waltham, MA, USA) for other proteins (unless stated otherwise). Proteins were transferred to nitrocellulose membranes using the iBlot 2 system (ThermoFisher Scientific). Membranes were enhanced if necessary using SuperSignal Western Blot Enhancer (ThermoFisher Scientific), then blocked for 1 h in Li-Cor Odyssey blocking buffer. The membranes were probed with the appropriate primary antibody (0.1–1 mg/mL) overnight at 4 °C. […] Protein concentrations were determined by Coomassie Blue binding with bovine serum albumin as a standard. The cellular levels of AMP and ATP were determined via direct perchloric acid extraction from cells, with LC:MS used to estimate the levels of each nucleotide.
Background: A western blot detects proteins with antibodies after separation by electrophoresis.

As usually defined, the IC50 is the concentration that gives 50% inhibition. For orientation: solubility means how much of the substance goes into solution per volume. Read a high solubility as much dissolved substance. With `CCc1ccccc1C(=O)Nc1n[nH]c2c(C)c(F)c(C3C(C#N)=C(C)N(C)C(C)=C3C#N)cc12` [BAY-3827], the IC50 in data set [1] is 0.0014 µM. In “Aqueous solubility”, this molecule registered a solubility of 0.3 µg/mL (≈ 0.64 µM). In addition, in data set [2], the “in vitro clearance (CL)” value was 55 mL/min/kg and the “oral bio-availability (Fmax)” value is recorded as 21%. Moreover, the blood concentration in data set [3] (after 4–8 h) fell in the range of 20 to 30 nM. The “peak blood concentration (mean)” value in data set [3] (at 60 min) is 90 nM and ≈ 90 nM. Moreover, the concentration at 8 h in data set [3] (female, NOD-SCID, mouse, whole blood, after 8 h) is 20 nM. The “inhibition of all four isoforms of RSK” value in data set [4] is given as “potently inhibit”.
Regarding `CNC(=O)c1ccccc1Oc1nc(Nc2cc(OC)c(OC)c(OC)c2)ncc1Br` [SBI-0206965], the IC50 in data set [5] was 67 µM.
